According to patent US8512694B2, “Method of producing rough strains of bacteria and uses thereof” (priority 2005, dated 2013):
“Also recorded” adds a separate entry of the source.

Tested on: Mycobacterium obuense type strain ATCC 27023
Assay: Growth of Mycobacterium obuense on Middlebrook 7H11 medium with different Dapsone concentrations
Procedure: Mycobacterium obuense type strain ATCC 27023 was grown Middlebrook 7H11 medium comprising different concentrations of Dapsone™.

Structure (SMILES): Nc1ccc(S(=O)(=O)c2ccc(N)cc2)cc1 [Dapsone ™, 4,4′-Diaminodiphenyl sulfone]
- Observed growth (Experiment 2 part a, 5 μg Dapsone/ml Middlebrook 7H11 medium): 3 smooth colonies
- Observed growth (Experiment 2 part a, 10 μg Dapsone/ml Middlebrook 7H11 medium): no growth
- Observed growth (Experiment 2 part a, 20 μg Dapsone/ml Middlebrook 7H11 medium): no growth
- Observed growth (Experiment 2 part a, 40 μg Dapsone/ml Middlebrook 7H11 medium): no growth
- Observed growth (Experiment 2 part a, 50 μg Dapsone/ml Middlebrook 7H11 medium): no growth
- Observed growth (Experiment 2 part b, 3 μg Dapsone/ml Middlebrook 7H11 medium): confluent smooth colonies
- Observed growth (Experiment 2 part b, 4 μg Dapsone/ml Middlebrook 7H11 medium): small smooth colonies
- Observed growth (Experiment 2 part b, 5 μg Dapsone/ml Middlebrook 7H11 medium): small smooth colonies
- Observed growth (Experiment 2 part c, 5 μg Dapsone/ml Middlebrook 7H11 medium): few rough colonies,; also recorded: mostly smooth colonies
- Observed growth (Experiment 2 part c, 7.5 μg Dapsone/ml Middlebrook 7H11 medium): few rough colonies,; also recorded: mostly smooth colonies
- Observed growth (Experiment 2 part c, 10 μg Dapsone/ml Middlebrook 7H11 medium): mostly rough colonies
- Observed growth (Experiment 2 part c, 12 μg Dapsone/ml Middlebrook 7H11 medium): mostly rough colonies
